Source: paper PMC4608773, “Elisidepsin Interacts Directly with Glycosylceramides in the Plasma Membrane of Tumor Cells to Induce Necrotic Cell Death” (PLoS ONE, 2015)
Read-outs that look alike come from different tables or passages of the source.

Assays:
[1] = system: HCT-116 cells; assay: cells
Protocol: (§1) Cells were seeded in 96-well microtiter plates and maintained at 37°C and 5% CO2 in drug-free medium before treatment with vehicle alone or elisidepsin at the concentrations and times indicated in the text. For cell survival quantification, a colorimetric assay using SRB was used. Briefly, after treatment, cells were washed twice with phosphate buffered saline (PBS), fixed for 25 min in 1% glutaraldehyde solution, rinsed twice with PBS, stained in 0.4% SRB-1% acetic acid solution for 30 min, rinsed several times with 1% acetic acid solution, and air-dried. […] Results are expressed as percentage of control cell survival and represent the mean of at least three independent experiments. IC50, half-maximal inhibitory concentration, was used as a reference value.

[2] = system: HCT-116 cells; assay: Electrophysiological recordings of membrane conductance (whole-cell patch-clamp); format: cell-based, human; settings: elisidepsin 1 μM, ramps -100 mV to +120 mV, 500 ms, n = 4
Protocol: (§2) The effects of elisidepsin on membrane conductance were analyzed in HCT-116 and HCT-116-Irv cells as previously described. Experiments were performed in a small bath mounted on the stage of an inverted microscope (Nikon model TMS, Garden City, NY, USA) continuously perfused with the extracellular solution (Tyrode-glucose buffer). Ion currents were recorded at room temperature (20–22°C) using the whole-cell voltage-clamp configuration of the patch-clamp technique with an Axopatch 200B patch-clamp amplifier (Axon Instruments, Foster City, CA). Currents were filtered at 2 kHz (four-pole Bessel filter), sampled at 4 kHz. Data acquisition and command potentials were controlled by the CLAMPEX program of PCLAMP 9.2 software (Axon Instruments). Micropipettes were pulled from borosilicate glass capillary tubes (Narishige, GD-1, Tokyo, Japan) on a programmable horizontal puller (Sutter Instrument Co., San Rafael, CA, USA) and heat-polished with a microforge (Narishige). Pipette tip resistance averaged between 1 and 3 MΩ. The intracellular pipette solution contained (in mM): K-aspartate 80, KCl 50, phosphocreatine 3, KH2PO4 10, MgATP 3, HEPES-K 10, EGTA-K 5 and was adjusted to pH 7.25 with KOH. The external solution (Tyrode-glucose buffer) contained (in mM): NaCl 130, KCl 4, CaCl2 1.8, MgCl2 1, HEPES-Na 10, and glucose 10, and was adjusted to pH 7.40 with NaOH. Measurements were performed using the CLAMPFIT program of PCLAMP 9.2.

[3] = system: HCT-116-Irv cells; assay: as above; format: cell-based, human; settings: elisidepsin 1 μM; ramps -100 mV to +120 mV, 500 ms
Protocol: as §2

[4] = system: B16 cells; assay: Cell viability assay (SRB colorimetric); format: cell-based, mouse; settings: SRB assay; mean of three different experiments; read-out: B16 (IC50), cell growth half-maximal inhibitory concentration
Protocol: as §1

[5] = system: GM95 cells (UGCG-deficient B16 mutant); assay: Cell viability assay (SRB colorimetric); format: cell-based, mouse; settings: negative values where GM95 is the more sensitive line
Protocol: as §1

[6] = system: HCT-116-Irv cells (elisidepsin-resistant subline); assay: cells
Protocol: B16 and GM95 cells were maintained in DMEM with the same supplements and conditions.
as §1

[7] = Lipid overlay (dot-blot) assay with elisidepsin-biotin; format: binding, human; settings: elisidepsin-biotin:elisidepsin 1:1 and 1:15
Protocol: Lipid extracts from cells were obtained according to the Bligh and Dyer method with slight modifications. Briefly, a cell pellet was resuspended in 1 mL of distilled water, then 3.75 mL of chloroform:methanol (1:2) was added and the suspension was mixed by vortexing two minutes; next, 1.25 mL of chloroform was added and vortexed one minute; last, 1.25 mL of NaCl 1 M was added to the suspension and vortexed one minute. The suspension was centrifuged and the bottom organic phase was collected. This solution was dried under a nitrogen stream and stored at -20°C. This extract was dissolved in a small volume of chloroform:methanol (2:1) and lipids were separated in a HPTLC (high performance thin layer chromatography) silica gel plate (Merck-Millipore, Darmstad, Germany) using a mobile phase of chloroform:methanol (8:2). Lipids were visualized by staining the plate with thioflavine S (sprayed with 10 μg mL^-1 in acetone:water (4:1) and visualized under UV light). Glycosylated lipids were visualized by orcinol staining (sprayed with orcinol 0.5% in sulphuric acid 0.5 M and developed with heat). […]
Interaction of purified lipid fractions with elisidepsin was evaluated with an overlay assay. […] Elisidepsin-biotin interactions were detected by incubation with streptavidin-HRP and subsequent chemiluminescence.

[8] = system: GM95-UGCG cells; settings: read-out: mean IC50, GM95-UGCG cells; 72 h treatment (Fig 4C); SRB; at least three experiments
Protocol: as §1

C/C=C1\NC(=O)[C@H](Cc2ccccc2)NC(=O)[C@@H](C(C)C)NC(=O)[C@@H]([C@@H](C)CC)NC(=O)[C@H](NC(=O)[C@H](NC(=O)[C@H](CCCN)NC(=O)[C@H]2CCCN2C(=O)[C@H](NC(=O)[C@@H](NC(=O)[C@@H](NC(=O)[C@H](NC(=O)CC[C@@H](C)CC)C(C)C)[C@@H](C)O)C(C)C)C(C)C)[C@@H](C)CC)[C@@H](C)OC(=O)[C@H](C(C)C)NC1=O [Elisidepsin]
Sensitivity of HCT-116 cells to elisidepsin after pretreatment with UGCG inhibitor NB-DNJ ([1]; pretreated 48 h with NB-DNJ 200 μM, elisidepsin 30 min incubation, SRB, three experiments): increase in cell resistance | Sensitivity of HCT-116 cells to elisidepsin after pretreatment with UGCG inhibitor PDMP ([1]; pretreated 72 h with PDMP 10 μM, elisidepsin 30 min incubation, SRB, three experiments): increase in cell resistance | IC50 ([1]; read-out: HCT-116 (IC50), cell growth half-maximal inhibitory concentration, SRB assay, 96-well, mean of three different experiments, exposure time not given): 5.5 µM | IC50 ([1]; read-out: IC50 after 30 min exposure, HCT-116, 30 min exposure, SRB, mean±SD of at least three experiments): 7.7 ± 4.1 µM | Time constant of the increase of membrane conductance ([2]; holding -80 mV, 20–22°C): 107 ± 39 s | Latency between application and the beginning of the effects on membrane conductance [2]: 460 ± 163 s | Effect on membrane conductance [3]: virtually no effect | IC50 [4]: 7.9 µM | RR: fold change between IC50 values from GM95 and B16 [5]: 8.9 | RR (resistance ratio): fold change between IC50 values from HCT-116-Irv and HCT-116 ([6]; negative values where HCT-116-Irv is the more sensitive line): 14.7 | IC50 ([6]; read-out: HCT-116-Irv (IC50), cell growth half-maximal inhibitory concentration, SRB assay, 96-well, mean of three different experiments, exposure time not given): 81 µM | IC50 ([6]; read-out: IC50 after 30 min exposure, HCT-116-Irv, 30 min exposure, SRB, at least three experiments): > 100 µM | IC50 ([6]; read-out: IC50 after 72 h exposure, HCT-116-Irv, 72 h exposure, SRB, mean±SD of at least three experiments): 81.5 ± 0.8 µM | Competition with elisidepsin-biotin for lipid fraction 4 [7]: could displace the biotinylated compound | IC50 [8]: 9 µM
